From patent US8614242B2, “1-(heterocyclic carbonyl)-2-substituted pyrrolidines” (Bayer Intellectual Property GmbH, priority 2010, dated 2013)

Columns and labels:
Rhizoctonia solani = assay: In vivo protective test on Rhizoctonia solani (rice); conditions: 250 ppm of active ingredient, evaluated 4 days after inoculation
From the text: In Vivo Protective Test on Rhizoctonia Solani (Rice)

Venturia inaequalis = assay: In vivo preventive test on Venturia inaequalis (apple scab); conditions: 100 ppm of active ingredient, evaluated 10 days after inoculation
Method: After the spray coating has dried on, the plants are inoculated with an aqueous conidia suspension of the causal agent of apple scab (Venturia inaequalis) and then remain for 1 day in an incubation cabinet at approximately 20° C. and a relative atmospheric humidity of 100%.

Puccinia triticina = assay: In vivo preventive test on Puccinia triticina (wheat); conditions: 500 ppm of active ingredient, evaluated 8 days after inoculation
Method: In Vivo Preventive Test on Puccinia Triticina (Wheat)
Solvent: 49 parts by weight of N,N-dimethylacetamide
Emulsifier: 1 part by weight of alkylaryl polyglycol ether
After the spray coating has been dried, the plants are sprayed with a spore suspension of Puccinia triticina.
The test is evaluated 8 days after the inoculation.

Alternaria solani = assay: In vivo preventive test on Alternaria solani (tomato); conditions: 500 ppm of active ingredient, evaluated 7 days after inoculation
Method: The plants remain for one day in an incubation cabinet at approximately 22° C. and a relative atmospheric humidity of 100%. Then the plants are placed in an incubation cabinet at approximately 20° C. and a relative atmospheric humidity of 96%.

Septoria tritici = assay: In vivo preventive test on Septoria tritici (wheat); conditions: 500 ppm of active ingredient, evaluated 21 days after inoculation
From the text: After the spray coating has been dried, the plants are sprayed with a spore suspension of Septoria tritici.

Pyricularia oryzae = format: in vivo; conditions: rice, protective, 250 ppm of active ingredient, evaluated 5 days after inoculation
Pyrenophora teres = assay: In vivo preventive test on Pyrenophora teres (barley); conditions: 500 ppm of active ingredient, evaluated 7-9 days after inoculation
Method: The plants remain for 48 hours in an incubation cabinet at 22° C. and a relative atmospheric humidity of 100%.

[1] = logP by HPLC on reversed-phase column (EEC Directive 79/831 Annex V.A8); format: physicochemical; conditions: HPLC on reversed-phase column (C 18), 40° C., 0.1% aqueous formic acid and acetonitrile, linear gradient 10% to 90% acetonitrile
Method: In table 1, the logP values were determined in accordance with EEC Directive 79/831 Annex V.A8 by HPLC (High Performance Liquid Chromatography) on a reversed-phase column (C 18), using the method described below: Temperature: 40° C.; Mobile phases: 0.1% aqueous formic acid and acetonitrile; linear gradient from 10% acetonitrile to 90% acetonitrile. Calibration was carried out using unbranched alkan-2-ones (comprising 3 to 16 carbon atoms) with known logP values (determination of the logP values by the retention times using linear interpolation between two successive alkanones). lambda-max-values were determined using UV-spectra from 200 nm to 400 nm and the peak values of the chromatographic signals.

Cochliobolus miyabeanus = conditions: rice, protective, 250 ppm of active ingredient, evaluated 4 days after inoculation
Method: In Vivo Protective Test on Cochliobolus Miyabeanus (Rice)
Solvent: 28.5 parts by weight of acetone
Emulsifier: 1.5 part by weight of polyoxyethylene alkyl phenyl ether
One day after spraying, the plants are inoculated with an aqueous spore suspension of the causal agent of rice brown spot (Cochliobolus miyabeanus). The plants are then placed in an incubator at approximately 25° C. and a relative atmospheric humidity of approximately 100% for 1 day.
The test is evaluated 4 days after the inoculation.

Sphaerotheca fuliginea = assay: In vivo preventive test on Sphaerotheca fuliginea (cucumber); conditions: 500 ppm of active ingredient, evaluated 7 days after inoculation
[2] = system: Fusarium nivale (var. majus); assay: In vivo preventive test on Fusarium nivale (wheat); conditions: 500 ppm of active ingredient, evaluated 5 days after inoculation
From the text: After the spray coating has been dried, the plants are slightly injured by using a sandblast and afterwards they are sprayed with a conidia suspension of Fusarium nivale (var. majus).

[3] = system: Blumeria graminis f.sp. hordei; assay: In vivo preventive test on Blumeria graminis (barley); conditions: 500 ppm of active ingredient, evaluated 7 days after inoculation
From the text: After the spray coating has been dried, the plants are dusted with spores of Blumeria graminis f.sp. hordei.

Phakopsora pachyrhizi = assay: In vivo protective test on Phakopsora pachyrhizi (soybeans); conditions: 250 ppm of active ingredient, evaluated 11 days after inoculation
Method: In Vivo Protective Test on Phakopsora Pachyrhizi (Soybeans)
The test is evaluated 11 days after the inoculation.

Leptosphaeria nodorum = assay: In vivo preventive test on Leptosphaeria nodorum (wheat); conditions: 500 ppm of active ingredient, evaluated 8 days after inoculation
From the text: After the spray coating has been dried, the plants are sprayed with a spore suspension of Leptosphaeria nodorum.

Compound: Cc1cc(C)c(CC2CCCN2C(=O)c2c(C(F)F)nn(C)c2F)cc1C (racemic) [Example 66]
- Efficacy (Rhizoctonia solani): 80%
- Efficacy (Venturia inaequalis): 100%
- Efficacy (Puccinia triticina): 100%
- Efficacy (Alternaria solani): 100%
- Efficacy (Septoria tritici): 90%
- Efficacy (Pyricularia oryzae): 97%
- Efficacy (Pyrenophora teres): 100%
- logP [1]: 3.81
- Efficacy (Cochliobolus miyabeanus): 98%
- Efficacy (Sphaerotheca fuliginea): 88%
- Efficacy [2]: 100%

Compound: Cn1nc(C(F)F)c(C(=O)N2CCCC2c2cccc(C(F)(F)F)c2)c1F (centres unmarked) [Example 17]
- Efficacy (Alternaria solani): 100%
- Efficacy (Pyricularia oryzae): 92%
- Efficacy (Pyrenophora teres): 100%
- logP [1]: 3.06
- Efficacy (Cochliobolus miyabeanus): 98%
- Efficacy (Sphaerotheca fuliginea): 95%

Compound: CCC(c1ccccc1)C1CCCN1C(=O)c1c(C(F)F)nn(C)c1F (centres unmarked) [Example 53]
- Efficacy (Venturia inaequalis): 100%
- Efficacy (Puccinia triticina): 88%
- Efficacy [3]: 100%
- Efficacy (Alternaria solani): 94%
- protection (efficacy) (Phakopsora pachyrhizi): 85%
- Efficacy (Septoria tritici): 100%
- Efficacy (Leptosphaeria nodorum): 100%
- Efficacy (Pyrenophora teres): 100%
- logP [1]: 3.48
- Efficacy (Cochliobolus miyabeanus): 95%
- Efficacy (Sphaerotheca fuliginea): 93%
- Efficacy [2]: 100%

Compound: Cn1nc(C(F)F)c(C(=O)N2CCC[C@H]2COc2c(Cl)cc(Cl)cc2Cl)c1F [Example 82]
- Efficacy (Rhizoctonia solani): 100%
- Efficacy (Puccinia triticina): 100%
- Efficacy [3]: 100%
- Efficacy (Septoria tritici): 86%
- Efficacy (Pyricularia oryzae): 98%
- logP [1]: 4.24
- Efficacy (Cochliobolus miyabeanus): 93%
- Efficacy (Sphaerotheca fuliginea): 100%
- Efficacy [2]: 100%
